From US12527873B2, “Glycocalyx mimetic coatings” (The Regents of The University of California, priority 2019, dated 2026) come the findings set out here.

In assay [1] the target is T1, E-selectin (Homo sapiens, UniProt P16581).
T1 sequence (P16581 22-610): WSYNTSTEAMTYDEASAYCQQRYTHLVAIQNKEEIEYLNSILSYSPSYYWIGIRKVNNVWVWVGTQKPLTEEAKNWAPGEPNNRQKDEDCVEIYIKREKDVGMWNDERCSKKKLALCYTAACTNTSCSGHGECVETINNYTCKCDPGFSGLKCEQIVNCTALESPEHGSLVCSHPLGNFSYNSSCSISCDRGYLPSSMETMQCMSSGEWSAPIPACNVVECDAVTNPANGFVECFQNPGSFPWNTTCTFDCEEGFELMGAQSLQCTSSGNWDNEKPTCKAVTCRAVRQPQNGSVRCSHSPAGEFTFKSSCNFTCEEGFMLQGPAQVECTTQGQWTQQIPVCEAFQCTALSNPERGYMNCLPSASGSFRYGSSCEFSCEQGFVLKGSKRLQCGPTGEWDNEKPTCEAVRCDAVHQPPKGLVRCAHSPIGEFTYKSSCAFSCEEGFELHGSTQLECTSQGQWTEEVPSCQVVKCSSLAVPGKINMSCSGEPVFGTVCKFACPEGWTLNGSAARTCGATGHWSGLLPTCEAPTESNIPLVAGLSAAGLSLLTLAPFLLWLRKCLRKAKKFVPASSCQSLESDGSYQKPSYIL
Put plainly: PMN binding to E-selectin coated microspheres (flow cytometry). Format: cell-based. The arrangement: purchased R&D Systems. Particulars: IkL peptide 450 μM, DS-IkL15 30 μM; p<0.05; FIG. 9. Here is the method: To validate the new molecule, fluorescent carboxylate microspheres were coated with recombinant human E-selectin (R&D Systems, Minneapolis, MN) using a PolyLink coupling kit (PolySciences Inc., Warrington, PA). Functionalized microspheres were treated with HBSS^+/+, EC-SEAL (30 μM), DS-IkL10 (30 μM), DS-IkL15 (30 μM), or GMI-1070 ([…]) for one hour. During this time, human neutrophils were isolated from whole blood using an established protocol. Briefly, 6 mL of whole blood were collected into an EDTA coated tube in accordance with the UC Davis Internal Review Board under IRB assurance No. 00004557. Neutrophils were isolated using an EasyStep Direct Human Neutrophil Isolation Kit (Stem Cell Technologies, Vancouver, BC, Canada), centrifuged, and resuspended in HBSS^+/+, with 0.1% human serum albumin (HSA) at 1×10^6 cells/mL. Cells were labeled with fluorescently tagged anti-CD15 for detection. Microspheres were pelleted and resuspended in 100 uL labeled neutrophils, then incubated for 30 minutes at room temperature with rotation (150 rpm). Samples were fixed in 4% PFA and read on an Attune NxT Flow Cytometer. Data was analyzed using FlowJo flow cytometry software (San Diego, Calif.) to determine the top three performing variants. This was repeated 2-6 times for an n of 3-7. […]
A general note: In flow cytometry, cells or beads pass a laser one at a time.

Assay [2] relates to stimulated human cardiac microvascular endothelial cells (HCMECs). Nature of the assay: Platelet activation on stimulated HCMECs (NAP-2, PF-4 in supernatant). Format: cell-based. The note with it: DS-IkL 30 μM, IkL peptide 450 μM, DS 30 μM, platelets 1 hour on TNF-α/IL-1β stimulated HCMECs. From the text: Enhanced platelet activation and binding have been implicated in a multitude of chronic inflammatory diseases, including acute coronary and pulmonary syndromes (Lisman, T, Cell Tissue Res. 2018; 371(3):567-576). Activated platelets release cytokines such as platelet factor 4 (PF-4) and neutrophil activating peptide 2 (NAP-2) that can in turn activate neutrophils (Pitchford, S., D. Pan, and H. C. Welch. Curr. Opin. Hematol. 2017; 24(1):23-31). To test if treatment of inflamed endothelial cells with DS-IkL could reduce the activation of platelets as assessed by PF-4 and NAP-2 levels, platelets were allowed to interact with stimulated human cardiac microvascular endothelial cells (HCMECs, PromoCell) under standard culture conditions for 1 hour before supernatant was collected. Stimulation media was prepared by diluting to 0.4 ng/ml tumor necrosis factor alpha (TNF-α) and 0.3 ng/ml interleukin 1 beta (IL-1β) in complete endothelial growth medium MV (PromoCell).

The target of the next assay is T2, P-selectin (Homo sapiens, UniProt P16109).
T2 sequence (P16109 42-830): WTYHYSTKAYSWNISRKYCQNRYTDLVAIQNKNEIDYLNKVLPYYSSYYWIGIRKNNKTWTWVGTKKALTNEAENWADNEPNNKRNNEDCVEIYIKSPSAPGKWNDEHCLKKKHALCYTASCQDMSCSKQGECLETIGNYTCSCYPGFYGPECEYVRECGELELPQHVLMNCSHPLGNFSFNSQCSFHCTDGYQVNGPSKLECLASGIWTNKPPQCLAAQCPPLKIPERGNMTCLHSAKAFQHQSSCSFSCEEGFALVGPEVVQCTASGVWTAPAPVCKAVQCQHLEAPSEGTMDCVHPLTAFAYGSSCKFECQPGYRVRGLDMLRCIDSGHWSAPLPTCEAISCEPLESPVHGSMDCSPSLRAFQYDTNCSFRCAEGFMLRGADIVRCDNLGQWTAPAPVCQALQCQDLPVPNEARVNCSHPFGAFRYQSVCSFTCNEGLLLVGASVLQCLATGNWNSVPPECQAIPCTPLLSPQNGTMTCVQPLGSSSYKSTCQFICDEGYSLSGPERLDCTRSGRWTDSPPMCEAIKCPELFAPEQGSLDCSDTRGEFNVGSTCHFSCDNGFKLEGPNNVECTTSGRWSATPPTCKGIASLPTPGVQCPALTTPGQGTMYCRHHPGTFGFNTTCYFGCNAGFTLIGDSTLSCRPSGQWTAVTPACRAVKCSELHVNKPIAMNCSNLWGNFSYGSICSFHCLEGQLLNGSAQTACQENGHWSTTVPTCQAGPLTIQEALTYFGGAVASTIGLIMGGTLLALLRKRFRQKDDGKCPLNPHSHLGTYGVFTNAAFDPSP
Nature of the assay: Binding to P-selectin coated surfaces (fluorescently tagged molecule, MFI). The note with it: increasing concentrations; MFI normalized to vehicle (HBSS); FIG. 6.

Assay [3] has as its target T1, E-selectin. Put plainly: Binding to E-selectin coated surfaces (fluorescently tagged molecule, MFI). Particulars: increasing concentrations; MFI normalized to vehicle (HBSS); FIG. 6.
Procedure: (§1) P- and E-selectin coated surfaces were treated with fluorescently tagged DS-IkL (30 μM, empty bars) or DS (30 μM, filled bars). […] Data are represented as means±SEM. *p<0.05, **p<0.01, ***p<0.001. n=3 independent experiments.

Procedure for P-selectin: as §1

For the substance “Ile-(D)lys-Leu-Leu-(D)pro-Hyp-Arg [IkL peptide]”, the “neutrophil adhesion to microspheres” value on E-selectin [1] is given as “approximately 75 % of control”. Moreover, the “platelet activation as assessed by NAP-2” value in assay [2] (FIG. 7) is on record as “reduced”. Also, the “platelet activation as assessed by PF-4” value in assay [2] (FIG. 8) was “reduced”.
dermatan sulfate [DS]: the “binding to P-selectin coated surfaces” value at P-selectin is “not observed in the DS group”. The “binding to E-selectin coated surfaces” value at E-selectin [3] is “not observed in the DS group”.
